Key:
[1] = Pharmacokinetics IV/PO in mice; assay type: in vivo, ICR mice; conditions: for AUC(0-t): read-out: AUC0–24h
Method: (§1) Pharmacokinetics profile of KMS88009 was obtained using ICR mice, SD rats, beagle dogs and cynomolgus monkeys. Animals were fasted overnight before KMS88009 administration. Mice were divided into 2 groups to receive KMS88009 as a single dose of 2.1 mg/kg intravenous (IV) bolus or 10 mg/kg orally (PO) by gavage. Additionally, KMS88009 was administered orally to estimate the BBB penetration in mice (10, 30 and 100 mg/kg). […] Dog received KMS88009 either as an IV bolus (1 mg/kg) via the great saphenous vein or by oral gavage (4 mg/kg). KMS88009 was administrated to monkeys as an IV bolus (1 mg/kg) via the femoral vein or by oral gavage (4 mg/kg). Vehicle for IV and PO administration was DMSO/tween-20/saline (3.3∶19.8∶[…]). […]. Brain samples were weighed and Daunce-homogenized in 10-fold volume of ice-chilled 4% bovine serum albumin (BSA) solution at room temperature. Plasma and brain homogenates were kept frozen at −70°C until analysis. The levels of KMS88009 were determined by the LC-MS/MS analysis. Pharmacokinetic parameters, time to the maximum concentration (Tmax), maximum concentration (Cmax), elimination half-life (T1/2), volume of distribution (Vd), clearance (Cl) and mean residual time (MRT), of KMS88009 were calculated based on plasma concentration-time data by a non-compartmental method using WinNonlin Version 5.2 (Pharsight, USA). Area under the curve from 0 to 24 hr (AUC0-24h) and area under the curve from 0 to infinity (AUCINF) were obtained by linear and log linear trapezoidal summations.

[2] = Plasma and brain pharmacokinetics (BBB penetration) after PO in mice; assay type: in vivo; conditions: for AUC(0-t): read-out: AUC0–24h
Method: as §1

[3] = Partition coefficient (log P), octanol-water titration; assay type: physicochemical; conditions: 23 ℃
Method: Dissociation constant (pKa) and partition coefficient (log P) Dissociation constant (pKa) and partition coefficient (log P) of KMS88009 were measured by a pH-method using GLpKa (Sirius, UK). pKa was measured by titrating KMS88009 solution and calculated from the shape of the titration curve. […] Log P of KMS88009 was calculated by a two-phase acid-base titration in a mixture of water and octanol. Three separate potentiometric titrations of KMS88009 were carried out at 23 ℃ in various octanol-water (0.15 M KCl) mixtures (0.5% to 50% octanol). The initial pH was adjusted to 10.0 with standardized 0.5 M NaOH prior to each titration. Titrations were performed with standardized 0.5 M HCl to pH 1.8. The pKa and log P values were calculated using RefinementPro software (Sirius, UK). Values are expressed as the mean ± SD of 3 independent experiments.

Aβ40 and Aβ42 = assay: Aβ40/Aβ42 sandwich ELISA of hippocampus, therapeutic trial; assay type: in vivo, mouse; conditions: 30 mg/kg/day, 3 months
Method: Mice subjected to behavior tests were sacrificed and levels of Aβ in their brains were analyzed. After removing olfactory lobe and cerebellum of brain, hippocampus and cerebral cortex were separated. The separated regions were Dounce-homogenized first in 10-fold mass of a lysis buffer (RIPA, 150 mM NaCl, 1% NP-40, 0.5% deoxycholic acid, 0.1% SDS and 50 mM tris, pH 8.0) or tris buffer (50 mM tris and pH 8.0) containing protease inhibitor cocktail (Pierce, USA) for prophylactic or therapeutic treatment groups, respectively. The homogenates were then centrifuged at 16,000 g for 20 min at 4°C. The supernatant (soluble Aβ fraction) was collected and stored at −70°C until analyzed. The resulting pellet was solubilized in 20-fold mass of cold guanidine solution (5 M guanidine HCl, 50 mM tris HCl and pH 8.0) at room temperature for 4 hr followed by dilution with cold Dulbecco's phosphate buffered saline (PBS) with 5% BSA and 0.03% tween-20. The diluent was centrifuged at 16,000 g for 20 min at 4°C to obtain the insoluble Aβ fraction. The tissue concentrations of Aβ40 and Aβ42 in the soluble and insoluble fraction were measured using Aβ-detecting sandwich enzyme-linked immunosorbent assay (ELISA) kit (BioSource, USA). The levels of soluble Aβ oligomers were measured by a dot-blot immunoassay with an anti-oligomer antibody and an anti-Aβ antibody on soluble fraction of hippocampus homogenates. The homogenate sample (3 µL) was spotted onto nitrocellulose membrane (Whatman, UK). After blocking with 5% BSA in tris-buffered saline (TBS) for 1 hr at room temperature, the membrane was incubated with rabbit anti-oligomer polyclonal antibody (A11; 1∶1,000; Millipore, USA) overnight at 4°C, followed by incubation with HRP-secondary anti-rabbit antibody (1∶5,000; Millipore, USA) for 1 hr at room temperature. Blots were developed using ECL reagents (PerkinElmer, USA). […] The density of dots was analyzed with Multi Gauge program (Fuji Film, Japan) and the data was normalized to the average density of the TG control group. […]

[4] = ICR, plasma, mouse IV 2.1 mg/kg
[5] = ICR, mouse IV 2.1 mg/kg, plasma
[6] = ICR, mouse, brain, mice PO 10 mg/kg
[7] = ICR, mouse, brain, mice PO 30 mg/kg
[8] = ICR, mouse, brain, mice PO 100 mg/kg
[9] = ICR, mouse, plasma, mice PO 10 mg/kg
[10] = ICR, mouse, plasma, mice PO 30 mg/kg
[11] = ICR, mouse, plasma, mice PO 100 mg/kg

With `COc1ccc2cc(C=Cc3ccc(N(C)C)cc3)oc2c1` [KMS88009, 6-methoxy-2-(4-dimethylaminostyryl) benzofuran] the MRT last [1, 4] was 2.9 h, the Vd [1, 4] was 32.1 L/kg and the clearance [1, 4] was 63.3 mL/min/kg. It also gave a half-life [1, 4] of 5.9 h, an MRT last ([1]; ICR, plasma, mouse PO 10 mg/kg) of 5.5 h and a Tmax ([1]; ICR, plasma, mouse PO 10 mg/kg) of 1 h. For the same compound, the half-life ([1]; ICR, plasma, mouse PO 10 mg/kg) was 4.6 h, the AUC(0-inf) [1, 5] was 1330 ng·h/mL and the AUC(0-t) [1, 5] was 1300 ng·h/mL. The AUC(0-inf) ([1]; ICR, mouse PO 10 mg/kg, plasma) was 6310 ng·h/mL, the Cmax ([1]; ICR, mouse PO 10 mg/kg, plasma) was 1060 ng/mL and the AUC(0-t) ([1]; ICR, mouse PO 10 mg/kg, plasma) was 6160 ng·h/mL. The BA ([1]; mouse PO 10 mg/kg vs IV […]) was 99.6%, the Kp ([2]; ICR, mouse, brain, mice, PO, read-out: Level (AUC0–24h) in the brain relative to plasma) was greater than 12 and the Cmax [2, 6] was 6370 ng/g. The Tmax [2, 6] was 2 h, the Cmax [2, 7] was 17800 ng/g and the Tmax [2, 7] was 4 h. It also gave a Cmax [2, 8] of 23300 ng/g, a Tmax [2, 8] of 10 h and a Cmax [2, 9] of 744 ng/mL. The Tmax [2, 9] was 1 h, the AUC(0-t) [2, 9] was 4570 ng·h/mL and the Cmax [2, 10] was 1640 ng/mL. The Tmax [2, 10] was 1 h, the AUC(0-t) [2, 10] was 13400 ng·h/mL and the Cmax [2, 11] was 2710 ng/mL. For the same compound, the Tmax [2, 11] was 2 h, the AUC(0-t) [2, 11] was 30500 ng·h/mL and the “AUC0–24h” value ([2]; brain, mice PO 10 mg/kg) was 55395.5 ng·h/g. For the same compound, the “AUC0–24h” value ([2]; brain, mice PO 30 mg/kg) was 205268.3 ng·h/g, the “AUC0–24h” value ([2]; brain, mice PO 100 mg/kg) was 367538.5 ng·h/g and the logP [3] was 2.4 ± 0.19. The “decrease of insoluble Aβ42 level vs TG littermates” value (Aβ40 and Aβ42) was 50.9%, the “decrease of insoluble Aβ40 level vs TG mice” value (Aβ40 and Aβ42; not statistically significant) was 44.9% and the “decrease of soluble Aβ40 level vs TG mice” value (Aβ40 and Aβ42; not statistically significant) was 19.4%.
